Data as given in patent US20050277612A1, “Methods, compositions and compound assays for inhibiting amyloid-beta protein production” (priority 2004, published 2005).

Assays:
SPHK2 RNA = SPHK2 RNA levels via real time PCR in KD virus infected cells; assay type: cell-based, Homo Sapiens; conditions: infected SH-SY5Y cells, normalized to household keeping genes (GAPDH)
Description: Upon identification of protein kinase involved of APP processing, it is essential to evaluate whether the kinase is expressed in the tissue and cells of interest. This can be achieved by measuring RNA and/or protein levels. In recent years, RNA levels are being quantified through real time PCR technologies, whereby the RNA is first transcribed to cDNA and then the amplification of the cDNA of interest is monitored during a PCR reaction. The amplification plot and the resulting Ct value are indicators for the amount of RNA present in the sample. To assess whether SPHK cDNA is expressed in the human brain, real time PCR with GAPDH specific primers and specific primers for polynucleotides coding for the SPHK polypeptide (Table 3) is performed on human total brain, human cerebral cortex, and human hippocampal total RNA (BD Biosciences). GAPDH RNA is detected with a Taqman probe, while for the polynucleotides of the invention SybrGreen is used. 40 ng of RNA is transcribed to DNA using the MultiScribe Reverse Transcriptase (50 U/μl) enzyme (Applied BioSystems). […]
(§1) Adenoviral knock down constructs are used to transduce mouse, rat or human primary neuronal cells and/or cell lines (e.g. HEK293, SH-SY5Y, IMR-32, SK-N—SH, SK-N-MC, H4, CHO, COS, HeLa) stably over-expressing APPwt or not. […] In addition, RNA is isolated from these infected cells and SPHK2 RNA levels are determined via real time PCR. […]

[1] = test system: amyloid beta 1-42 levels in the conditioned medium of SH-SY5Y cells; assay: Amyloid beta 1-42 ELISA after adenoviral knock down of SPHK2; assay type: cell-based; conditions: SH-SY5Y cells co-infected with adenoviruses expressing APPwt and the KD sequence, compared to GL2 KD virus infected cells
Experimental: Cells seeded in collagen-coated plates at a cell density of 15000 cells/well (384 well plate) in DMEM (10% FBS), are infected 24 h later with 1 μl or 0.2 μl of adenovirus (corresponding to an average multiplicity of infection (MOI) of 120 and 24 respectively). The following day, the virus is washed away and DMEM (25 mM Hepes; […]) is added to the cells. Amyloid-beta peptides are allowed to accumulate during 24 h. The ELISA plate is prepared by coating with a capture antibody (JRF/cAbeta42/26) (obtained from M Mercken, Johnson and Johnson Pharmaceutical Research and Development, B-2340 Beerse, Belgium) overnight in buffer 42 (Table 2) at a concentration of 2.5 μg/ml. The excess capture antibody is washed away the next morning with PBS and the ELISA plate is then blocked overnight with casein buffer (see Table 2) at 4° C. […] Following the removal of excess detection antibody by a wash with PBS-Tween20 and PBS, HRP activity is detected via addition of luminol substrate (Roche), which is converted into a chemiluminescent signal by the HRP enzyme. […]
as §1

ACTTCTGCATCTACACCTACC [SEQ ID NO: 6]
SPHK2 RNA levels (SPHK2 RNA): reduced | amyloid beta 1-42 levels in the conditioned medium [1]: reduction
